Measurements taken from patent US11504399B2, “Combination therapy for a stable and long term engraftment using specific protocols for T/B cell depletion” (Yeda Research and Development Co. Ltd., priority 2011, dated 2022).
Read-outs that look alike come from different tables or passages of the source.

Legend:
[1] = tested on: allogeneic recipients (C3H/Hen) of Balb/c-Nude BM cells; settings: for donor type chimerism expressed: regular dose 5×10^6 T cell depleted BM, TCD, monohydrate
Excerpt: Mice used in these studies were 6-12 week old female mice. Balb/c-Nude (H-2d) and C3H/Hen (H-2k) were purchased from Harlan Israel (Rehovot, Israel). All mice were kept in small cages (5 animals in each cage) and fed sterile food and acid water. These studies were approved by the Weizmann Institute of Science, Institutional Animal Care and Use Committee.
(§1) Low (5×10^6) and high dose (25×10^6) Balb/c-Nude BM cells (providing a source of BM depleted of T cells) were transplanted into allogeneic recipients (C3H/Hen) on day 0 following in-vivo T cell debulking (TCD) with anti-CD4 (clone GK1.5) and anti-CD8 (clone 53.6.72) antibodies (300 μg each; Bio X Cell, NH, USA) delivered on day −6, and exposure to 2.0 Gy total body irradiation (TBI) on day −1. High dose Cyclophosphamide (CY, 100 mg/kg, Baxter Oncology, Germany) was administered on days +3 and +4 post transplant and donor type chimerism was evaluated 35 and 95 days post transplant using fluorescein anti-host and donor H-2 antibodies (e.g. FlTC labeled anti-H-2D^d antibody specific for donor type cells and PE labeled anti-H-2K^k antibody specific for host type cells).
Recipient mice (C3H/Hen) were treated with a conditioning protocol prior to transplantation of a T cell depleted bone marrow transplant. Specifically, mice were in-vivo treated with T cell debulking (TCD) using anti-CD4 and anti-CD8 antibodies delivered on day −6 and by exposure to 2.0 Gy total body irradiation (TBI) on day −1. Next, low (5×10^6) or high dose (25×10^6) Balb/c-Nude BM cells (providing a source of BM depleted of T cells, as Nude mice have miniscule numbers of mature T cells) were transplanted into allogeneic recipients (C3H/Hen) on day 0. High dose cyclophosphamide (CY, 100 mg/kg) was administered on days +3 and +4 post transplant. Evaluation of bone marrow cell engraftment was evaluated by donor type chimerism at 35 and 95 days post transplant.
as §1, with “High” for “Low (5×10^6) and high”, “different doses of irradiation ranging from 1 to 3.5” for “2.0”, “TBI” for “total body irradiation (TBI)”, “30” for “35 and 95”
High dose Cyclophosphamide (CY) was administered on days +3 and +4 post transplant and donor type chimerism was evaluated at 30 days post transplant.
as §1, with “High dose” for “Low (5×10^6) and high dose”, “−1. Different doses of” for “−1. High dose”, “mg/kg, 125 mg/kg or 150 mg/kg,” for “mg/kg,”, “Germany) were” for “Germany) was”, “evaluated 30” for “evaluated 35 and 95”

[2] = tested on: C3H/Hen recipient mice with Balb/c and C57BL/6 skin grafts
Protocol: Donor (Balb/c) and 3rd party (C57BL/6) skin grafts were transplanted to the mixed chimeric recipients as described above [i.e. to those mice which were previously transplanted with mega dose (25×10^6) T cell depleted BM and were treated with high dose CY] and to the recipient mice that were inoculated with a regular (5×10^6) T cell depleted BM cell dose and were treated with high dose CY.
Tolerance induction was measured by transplantation of donor (Balb/c) and 3rd party (C57BL/6) skin grafts to the mixed chimeric recipients that were transplanted with mega dose (25×10^6) T cell depleted BM and were treated with high dose CY (as described above), in comparison to the recipients that were inoculated with a regular (5×10^6) T cell depleted BM cell dose (as described above).

With O.O=P1(N(CCCl)CCCl)NCCCO1 (stereo not drawn) [CY, 2-[bis(2-chloroethyl)amino]tetrahydro-2H-1,3,2-oxazaphosphorine 2-oxide monohydrate] the mixed chimerism ([1]; 5×10^6 T cell depleted BM and CY, 180 and 225 days post transplant) was “did not exhibit mixed chimerism”, the “percentage of chimeric mice” value ([1]; 25×10^6 BM, 1.0 Gy TBI, CY 100 mg/kg days +3 and +4, 30 days post transplant (5/6)) was 83% and the “percentage of chimeric mice” value ([1]; 25×10^6 BM, 2 Gy TBI, CY 100 mg/kg days +3 and +4, 30 days post transplant (13/15)) was 87%. The chimeric recipient mice ([1]; 25×10^6 BM, 2.5, 3 or 3.5 Gy TBI, CY 100 mg/kg days +3 and +4, 30 days post transplant) was 6/6, the “effect of depletion of CD8+ cells from the BM preparation on level of chimerism” value ([1]; 25×10^6 CD8 depleted vs non-depleted Balb/c-Nude BM, 2 Gy TBI, CY 100 mg/kg days +3 and +4, 30 days) was “did not have any adverse impact” and the “number of donor type chimeric recipients and level of donor chimerism” value ([1]; 25×10^6 T cell depleted BM and CY, follow-up 180 and 225 days post transplant) was “remained unchanged”. The “mice with durable mix chimerism” value ([1]; 25×10^6 T cell depleted BM, TCD day −6, 2 Gy TBI day −1, CY 100 mg/kg days +3 and +4, day 35 and day 95) was 4 out of 7, the “effect of increasing CY dose on chimerism” value ([1]; CY 125 mg/kg or 150 mg/kg compared to 100 mg/kg, 25×10^6 BM, 2 Gy TBI, 30 days) was “did not provide a significant enhancement of chimerism” and the “donor type chimerism expressed” value ([1]; 2 Gy TBI, CY 100 mg/kg days +3 and +4, day 35 and day 95, listed as cyclophosphamide) was “none”. The “donor type chimerism expressed” value ([1]; 2 Gy TBI, CY 100 mg/kg days +3 and +4, day 35 and day 95) was “did not exhibit donor type chimerism”, the skin graft outcome ([2]; 5×10^6 T cell depleted BM cells and CY) was “rejected both the donor and 3rd party skin grafts” and the “chimeric mice that accepted the donor graft and rejected the 3rd party skin grafts” value ([2]; 25×10^6 T cell depleted BM, high dose CY days +3 and +4) was “three out of 4”.
